From article PMC5672931 (British Journal of Cancer, 2017)
Several values for one entry are separate records, joined by “and”; a condition that tells them apart may be missing. Identical values can stand only once.

How the values were obtained:
[1] = test system: patients with advanced malignancies; test: phase 1 dose escalation: MAD, RP2D and dose-limiting toxicities; format: in vivo, human
[2] = test system: patients with advanced malignancies; test: safety and tolerability: adverse events; format: in vivo, human; settings: for Diarrhoea / Fatigue / Nausea / Neutropenia / Vomiting / Abdominal pain / Alopecia / Anaemia / Decreased appetite / Dehydration / Dizziness / Febrile neutropenia / Headache / Hyperbilirubinemia / Hyperglycaemia / Hyperuricemia / Hypotension / Increased ALT / Increased AST / Increased alkaline phosphatase / Leukopenia / Pancytopenia / Thrombocytopenia / Bacterial sepsis: treatment-related
[3] = test system: Rb phosphorylation and other CDK targets in keratinocytes; test: CDK targets in skin biopsies; format: in vivo, human
[4] = test system: Rb phosphorylation and other CDK targets in metastatic melanoma biopsies; test: CDK targets in paired tumour biopsies; format: in vivo, human; settings: three patients with metastatic melanoma
advanced malignancies = test: anti-tumour activity, RECIST v. 1.0; format: in vivo, human; settings: parts 1 and 2; extending to 30 cycles
CDK12 = settings: ref Johnson et al, 2016; cited from earlier work
[5] = test system: patients with solid tumours; settings: weekly study; ref Nemunaitis et al, 2013; cited from earlier work
[6] = coadministration with aprepitant; ref Zhang et al, 2012; cited from earlier work
[7] = 2-h infusion at RP2D 50 mg m^−2, fifteen patients, all grades
[8] = 8- and 24-h infusion n=26, all grades
[9] = 8- and 24-h infusion n=26, grade 3–4
[10] = 8-h infusions, 16 patients, all grades
[11] = 8-h infusions, 16 patients, grade 3 or 4
[12] = 24-h infusions, 10 patients, all grades
[13] = skin biopsies post- vs pre-treatment, 2-h infusions

SMILES: CCc1cnn2c(NCc3ccc[n+]([O-])c3)cc(N3CCCC[C@H]3CCO)nc12 [dinaciclib, Dinaciclib]
- recommended phase 2 dose (RP2D) ([1]; 2-h i.v. infusion every 21 days): 50 mg m^−2
- maximum administered dose (MAD) ([1]; 2-h infusion): 58 mg m^−2
- No of subjects with DLT in cycle 1 ([1]; 2-hour infusion, 50 mg/m2 (RP2D), 15 subjects treated): 4 of 15
- recommended phase 2 dose (RP2D) ([1]; 8-h i.v. infusion every 3 weeks): 7.4 mg m^−2
- recommended phase 2 dose (RP2D) / highest safe dose ([1]; 24-h i.v. infusion every 3 weeks): 10.4 mg m^−2
- deaths before study treatment was discontinued ([2]; one of gram-negative sepsis (29.6 mg m^−2, part 1), others related to progressive disease): Eight
- SAE bacterial sepsis ([2]; part 1): 2 (6%) n (%)
- SAE febrile neutropenia ([2]; part 1): 2 (6%) n (%)
- SAE hyperbilirubinemia ([2]; part 1): 3 (8%) n (%)
- SAE hypotension ([2]; part 1): 3 (8%) n (%)
- SAE increased AST ([2]; part 1): 2 (6%) n (%)
- SAE neutropenia ([2]; part 1): 4 (11%) n (%)
- SAE febrile neutropenia ([2]; part 2): 2 (8%) n (%)
- SAE hypotension ([2]; part 2): 3 (12%) n (%)
- SAE neutropenia ([2]; part 2): 2 (8%) n (%)
- patients with serious AEs (SAEs) ([2]; part 2 (8- and 24-h infusions)): 10 (38%) n (%)
- Diarrhoea [2, 7]: 8 (53%) n (%)
- Fatigue [2, 7]: 9 (60%) n (%)
- Nausea [2, 7]: 12 (80%) n (%)
- Neutropenia [2, 7]: 9 (60%) n (%)
- Vomiting [2, 7]: 11 (73%) n (%)
- Abdominal pain ([2]; 2-h infusion n=35, all grades): 2 (6) n (%)
- Alopecia ([2]; 2-h infusion n=35, all grades): 4 (11) n (%)
- Anaemia ([2]; 2-h infusion n=35, all grades): 4 (11) n (%)
- Decreased appetite ([2]; 2-h infusion n=35, all grades): 5 (14) n (%)
- Dehydration ([2]; 2-h infusion n=35, all grades): 3 (9) n (%)
- Diarrhoea ([2]; 2-h infusion n=35, all grades): 16 (46%) n (%) and 16 (46) n (%)
- Dizziness ([2]; 2-h infusion n=35, all grades): 3 (9) n (%)
- Fatigue ([2]; 2-h infusion n=35, all grades): 13 (37%) n (%) and 13 (37) n (%)
- Febrile neutropenia ([2]; 2-h infusion n=35, all grades): 2 (6) n (%)
- Headache ([2]; 2-h infusion n=35, all grades): 4 (11) n (%)
- Hyperbilirubinemia ([2]; 2-h infusion n=35, all grades): 3 (9) n (%)
- Hyperglycaemia ([2]; 2-h infusion n=35, all grades): 1 (3) n (%)
- Hyperuricemia ([2]; 2-h infusion n=35, all grades): 2 (6) n (%)
- Hypotension ([2]; 2-h infusion n=35, all grades): 3 (9) n (%)
- Increased ALT ([2]; 2-h infusion n=35, all grades): 4 (11) n (%)
- Increased AST ([2]; 2-h infusion n=35, all grades): 6 (17) n (%)
- Increased alkaline phosphatase ([2]; 2-h infusion n=35, all grades): 1 (3) n (%)
- Leukopenia ([2]; 2-h infusion n=35, all grades): 8 (23) n (%)
- Nausea ([2]; 2-h infusion n=35, all grades): 23 (66%) n (%) and 23 (66) n (%)
- Neutropenia ([2]; 2-h infusion n=35, all grades): 18 (51%) n (%) and 18 (51) n (%)
- Pancytopenia ([2]; 2-h infusion n=35, all grades): 1 (3) n (%)
- Thrombocytopenia ([2]; 2-h infusion n=35, all grades): 1 (3) n (%)
- Vomiting ([2]; 2-h infusion n=35, all grades): 23 (66%) n (%) and 23 (66) n (%)
- Abdominal pain ([2]; 2-h infusion n=35, grade 3–4): 0 n (%)
- Alopecia ([2]; 2-h infusion n=35, grade 3–4): 0 n (%)
- Anaemia ([2]; 2-h infusion n=35, grade 3–4): 0 n (%)
- Decreased appetite ([2]; 2-h infusion n=35, grade 3–4): 0 n (%)
- Dehydration ([2]; 2-h infusion n=35, grade 3–4): 1 (3) n (%)
- Diarrhoea ([2]; 2-h infusion n=35, grade 3–4): 0 n (%)
- Dizziness ([2]; 2-h infusion n=35, grade 3–4): 0 n (%)
- Fatigue ([2]; 2-h infusion n=35, grade 3–4): 0 n (%)
- Febrile neutropenia ([2]; 2-h infusion n=35, grade 3–4): 2 (6%) n (%) and 2 (6) n (%)
- Headache ([2]; 2-h infusion n=35, grade 3–4): 0 n (%)
- Hyperbilirubinemia ([2]; 2-h infusion n=35, grade 3–4): 0 n (%)
- Hyperglycaemia ([2]; 2-h infusion n=35, grade 3–4): 1 (3) n (%)
- Hyperuricemia ([2]; 2-h infusion n=35, grade 3–4): 2 (6%) n (%) and 2 (6) n (%)
- Hypotension ([2]; 2-h infusion n=35, grade 3–4): 1 (3) n (%)
- Increased ALT ([2]; 2-h infusion n=35, grade 3–4): 2 (6%) n (%) and 2 (6) n (%)
- Increased AST ([2]; 2-h infusion n=35, grade 3–4): 3 (9%) n (%) and 3 (9) n (%)
- Increased alkaline phosphatase ([2]; 2-h infusion n=35, grade 3–4): 1 (3) n (%)
- Leukopenia ([2]; 2-h infusion n=35, grade 3–4): 6 (17%) n (%) and 6 (17) n (%)
- Nausea ([2]; 2-h infusion n=35, grade 3–4): 0 n (%)
- Neutropenia ([2]; 2-h infusion n=35, grade 3–4): 16 (46%) n (%) and 16 (46) n (%)
- Pancytopenia ([2]; 2-h infusion n=35, grade 3–4): 1 (3) n (%)
- Thrombocytopenia ([2]; 2-h infusion n=35, grade 3–4): 1 (3) n (%)
- Vomiting ([2]; 2-h infusion n=35, grade 3–4): 1 (3) n (%)
- Abdominal pain [2, 8]: 1 (4) n (%)
- Alopecia [2, 8]: 2 (8) n (%)
- Anaemia [2, 8]: 3 (12) n (%)
- Bacterial sepsis [2, 8]: 1 (4) n (%)
- Decreased appetite [2, 8]: 2 (8) n (%)
- Dehydration [2, 8]: 2 (8) n (%)
- Diarrhoea [2, 8]: 7 (27) n (%)
- Dizziness [2, 8]: 2 (8) n (%)
- Fatigue [2, 8]: 10 (38) n (%)
- Febrile neutropenia [2, 8]: 2 (8) n (%)
- Headache [2, 8]: 0 n (%)
- Hyperbilirubinemia [2, 8]: 1 (4) n (%)
- Hyperglycaemia [2, 8]: 0 n (%)
- Hyperuricemia [2, 8]: 0 n (%)
- Hypotension [2, 8]: 5 (19) n (%)
- Increased ALT [2, 8]: 1 (4) n (%)
- Increased AST [2, 8]: 2 (8) n (%)
- Increased alkaline phosphatase [2, 8]: 3 (12) n (%)
- Leukopenia [2, 8]: 0 n (%)
- Nausea [2, 8]: 9 (35) n (%)
- Neutropenia [2, 8]: 7 (27) n (%)
- Pancytopenia [2, 8]: 0 n (%)
- Thrombocytopenia [2, 8]: 1 (4) n (%)
- Vomiting [2, 8]: 7 (27) n (%)
- Abdominal pain [2, 9]: 1 (4) n (%)
- Alopecia [2, 9]: 0 n (%)
- Anaemia [2, 9]: 0 n (%)
- Bacterial sepsis [2, 9]: 1 (4) n (%)
- Decreased appetite [2, 9]: 0 n (%)
- Dehydration [2, 9]: 0 n (%)
- Diarrhoea [2, 9]: 0 n (%)
- Dizziness [2, 9]: 0 n (%)
- Fatigue [2, 9]: 2 (8) n (%)
- Febrile neutropenia [2, 9]: 2 (8) n (%)
- Headache [2, 9]: 0 n (%)
- Hyperbilirubinemia [2, 9]: 1 (4) n (%)
- Hyperglycaemia [2, 9]: 0 n (%)
- Hyperuricemia [2, 9]: 0 n (%)
- Hypotension [2, 9]: 2 (8) n (%)
- Increased ALT [2, 9]: 0 n (%)
- Increased AST [2, 9]: 1 (4) n (%)
- Increased alkaline phosphatase [2, 9]: 2 (8) n (%)
- Leukopenia [2, 9]: 0 n (%)
- Nausea [2, 9]: 0 n (%)
- Neutropenia [2, 9]: 6 (23) n (%)
- Pancytopenia [2, 9]: 0 n (%)
- Thrombocytopenia [2, 9]: 0 n (%)
- Vomiting [2, 9]: 0 n (%)
- Diarrhoea [2, 10]: 7 (44%) n (%)
- Fatigue [2, 10]: 8 (50%) n (%)
- Nausea [2, 10]: 7 (44%) n (%)
- Neutropenia [2, 10]: 7 (44%) n (%)
- Vomiting [2, 10]: 6 (38%) n (%)
- Febrile neutropenia [2, 11]: 2 (13%) n (%)
- Hypotension [2, 11]: 2 (13%) n (%)
- Neutropenia [2, 11]: 6 (38%) n (%)
- Fatigue [2, 12]: 2 (20%) n (%)
- Increased AST [2, 12]: 2 (20%) n (%)
- Increased alkaline phosphatase [2, 12]: 2 (20%) n (%)
- Nausea [2, 12]: 2 (20%) n (%)
- Fatigue ([2]; 24-h infusions, 10 patients, grade 3 or 4): 2 (20%) n (%)
- cyclin D1 levels [3, 13]: decreased
- p27^Kip1 levels [3, 13]: relatively stable
- p53 levels [3, 13]: increased
- Ki-67 staining ([3]; skin biopsies post-treatment): no substantial reduction
- degree of changes of Rb/CDK markers ([3]; skin biopsies, 8-h infusions): overall similar to that observed after 2-h infusions
- expression of Rb phosphorylated at S795 [4]: reduced expression
- expression of Rb phosphorylated at T356 [4]: reduced expression
- expression of Rb phosphorylated at other sites and of total Rb [4]: overall preserved expression
- increases in p27^Kip1 and p53 post-treatment [4]: occurred in two samples
- patients with stable disease for at least six treatment cycles (advanced malignancies): eight
- CDK12 inhibition (CDK12): CDK12 inhibition by dinaciclib has also been demonstrated
- subjects with grade ⩾3 neutropenia [5]: 10%
- effect of aprepitant on dinaciclib PK parameters [6]: does not significantly alter dinaciclib PK parameters
